{"source": "patent US20040170714A1", "about": "“Bauhinia extracts” (priority 2001, published 2004)", "key": {"[1]": {"test_system": "N0-STZ rats", "assay": "Oral Glucose Tolerance Test (OGTT) in the N0-STZ rat model after 5 days of gavage", "assay_type": "in vivo", "conditions": "Example 2a, 2 × 100 mg/kg daily for 5 days", "protocol": "The N0-STZ rat model is described in Portha B., Picon L., Rosselin G., Diabetologia, 1979, 17, 371-377. The Oral Glucose Tolerance Test (OGTT) is described in Wilkerson: Diagnosis, oral glucose tolerance test: in Diabetes mellitus, Diagnosis & Treatment, p.31-34, NY, American Diabetes Association, 1964. During 5 days an appropriate dose of the extract is gavaged into the N0-STZ rats two times a day. Three hours after the last administration the Oral Glucose Tolerance Test (OGTT) is performed in awake rats by administering 2 g glucose/kg body weight. Blood samples are collected just before glucose administration (0 min) and after 30, 60 90, 120 and 180 minutes.\n(§1) The N0-STZ rat model is used to evaluate the efficacy of the extract of example 1. During 5 days an appropriate dose of the drug (table 1) is gavaged into 8 N0-STZ rats two times a day. Three hours after the last administration the Oral Glucose Tolerance Test (OGTr) is performed in awake rats by administering 2 g glucose/kg body weight. Blood samples are collected just before glucose administration (0 min) and after 30, 60 90 and 120 minutes.\nas §1, with “5)” for “1)”, “rats.” for “rats two times a day.”, “(OGTT)” for “(OGTr)”"}, "[2]": {"test_system": "N0-STZ rats", "assay": "Fasting plasma glucose concentration on day 5 in the N0-STZ rat model", "assay_type": "in vivo", "conditions": "2 × 100 mg/kg daily; day 5, after 2 hour fasting, before glucose; control −14", "protocol": "The fasting plasma glucose concentration (table 4) is measured from blood samples obtained after a 2 hour fasting period on day 5 before the administration of glucose. In addition, preferred extracts of the invention in hand show a significant decrease of the fasting plasma glucose concentration versus initial basal glycemia. Preferred extracts show a decrease of the fasting plasma glucose concentration of at least 10%, more preferred of at least 28% versus initial basal glycemia.\nThe fasting plasma glucose concentration (table 4) is measured from blood samples obtained after a 2 hour fasting period on day 5 before the administration of glucose."}}, "data": [{"compound": "CN(C)C(=N)N=C(N)N", "note": "[example 24, metformin]", "values": [{"measurement": "OGTT area under curve: deviation from control (23)", "setting": "[1]", "value": "−18", "unit": "%"}, {"measurement": "OGTT: Area under curve (Integration of the Plasma Glucose Level versus time, table 2)", "setting": "[1]; 0-120 min", "value": 26363}, {"measurement": "Plasma Glucose Level", "setting": "[1]; 30 min after 2 g glucose/kg", "value": 245, "unit": "mg/dL"}, {"measurement": "Plasma Glucose Level", "setting": "[1]; 60 min after 2 g glucose/kg", "value": 242, "unit": "mg/dL"}, {"measurement": "Plasma Glucose Level", "setting": "[1]; 90 min after 2 g glucose/kg", "value": 223, "unit": "mg/dL"}, {"measurement": "Plasma Glucose Level", "setting": "[1]; 120 min after 2 g glucose/kg", "value": 207, "unit": "mg/dL"}, {"measurement": "Plasma Glucose Level", "setting": "[1]; time −0 min (just before 2 g glucose/kg)", "value": 143, "unit": "mg/dL"}, {"measurement": "Effect on fasting Plasma Glucose Concentration in % of variation versus initial basal glycemia", "setting": "[2]", "value": "−31", "unit": "%"}]}]}
